Laboratory results published in patent US20050192360A1, “Method of treatment of pancreatic cancer” (priority 1999, published 2005).
Where a name gives a salt, the structure may show the parent alone. Read-outs that look alike come from different tables or passages of the source.

Legend:
[1] = tested on: xenografted Panc-1 human pancreatic tumors; test: Human pancreatic cancer xenograft mouse model, monotherapy or combination with gemcitabine (Example 7); format: in vivo, male athymic nude (Ncr) mice; settings: for Tumor re-growth after termination of treatment: 19 days post-treatment observation
Description: Human pancreatic cancer Panc-1 cells (2×10^6) are implanted subcutaneously into male athymic nude (Ncr) mice. […] The combination therapy group receives β-lapachone and gemcitabine on the same day in each treatment. Following treatment, the animals are observed for an additional 19 days. Tumors are measured throughout the treatment and post-treatment periods.

[2] = tested on: E2F-1 protein in Paca-2 cells; test: Western blot of E2F-1 protein expression; format: cell-based, human
Description: Cells are harvested and whole cell lysates were prepared and resolved by SDS/PAGE, then Western blots are prepared using E2F-1 antibody obtained from Santa Cruz Biotechnology (Santa Cruz, Calif.) and an enhanced chemiluminescence assay system (Amersham Pharmacia).

[3] = tested on: xenografted Panc-1 human pancreatic tumors; format: in vivo, athymic female nude mice (Ncr); settings: 5 treatments
Description: Athymic female nude mice (Ncr) are inoculated subcutaneously with 4×10^6 human Panc-1 pancreatic cancer cells, and the tumors are allowed to grow to […] in size. The animals are randomized into three groups. […] Mean tumor volume is then analyzed.

normal cells = test: In vitro experiments using cell lines of various tissue origins; format: cell-based

| SMILES | Reduction of tumor size at termination of treatment ([1]; gemcitabine 120 mg/kg i.p., ten treatments every three days) | Tumor re-growth after termination of treatment ([1]; gemcitabine 120 mg/kg i.p.) [%] | Concentration at which E2F-1 protein is induced (lowest concentration tested) ([2]; 0.5 hours exposure) [µM] | E2F-1 protein expression (Western blot) ([2]; 0.5 hours exposure, 0.5, 2 or 4 μM) | Mean tumor volume ([3]; 40 mg/kg intraperitoneally every three days) | Mean tumor volume ([3]; 60 mg/kg intraperitoneally every three days) | Tumor regression at termination of treatment ([1]; β-lapachone alone 40 mg/kg i.p., ten treatments every three days) | Tumor re-growth after termination of treatment ([1]; β-lapachone alone 40 mg/kg i.p.) | Toxicity to normal cells in vitro (normal cells) |
| --- | --- | --- | --- | --- | --- | --- | --- | --- | --- |
| Nc1ccn([C@@H]2O[C@H](CO)[C@@H](O)C2(F)F)c(=O)n1 [gemcitabine, 2′-deoxy-2′,2′-difluorocytidine monohydrochloride (β-isomer), reference compound] | 30-40% | 400 |  |  |  |  |  |  |  |
| CC1(C)CCC2=C(O1)c1ccccc1C(=O)C2=O [β-lapachone, 3,4-dihydro-2,2-dimethyl-2H-naphtho[1,2-b]pyran-5,6-dione] |  |  | 0.5 | upregulated | reduced | reduced | 30-40% | no significant re-growth | relatively non-toxic |
